Measurements taken from patent US20190029238A1, “[…]” (William Paterson University Of New Jersey, priority 2015, published 2019).

Assays:
[1] = system: mice subjected to chronic mild stress (CMS); experiment: Alcohol consumption in mice subjected to chronic mild stress (CMS); assay type: in vivo, mouse; conditions: for alcohol consumption: mice subjected to chronic mild stress (CMS); for CB2R agonist or antagonist effect on alcohol consumption: normal mice not subjected to CMS
Text: The involvement of brain neuronal CB2Rs in drug abuse and depression is studied by using the conditional ko mice of the invention. Mice preferring alcohol have reduced Cnr2 gene expression in the ventral midbrain whereas the Cnr2 gene expression is unaltered in the ventral midbrain region of mice with little or no preference for alcohol. […] This CB2R agonist or antagonist effect is absent in normal mice that were not subjected to CMS.

CB2R = biological target: T1, CB2R (Mus musculus, UniProt P47936); experiment: Early and pretreatment with CB2R agonist in stroke; assay type: in vivo
T1 construct: from tissue; host or cells: living mouse; brain (microglia and neurons) after stroke
T1 sequence (P47936 whole entry): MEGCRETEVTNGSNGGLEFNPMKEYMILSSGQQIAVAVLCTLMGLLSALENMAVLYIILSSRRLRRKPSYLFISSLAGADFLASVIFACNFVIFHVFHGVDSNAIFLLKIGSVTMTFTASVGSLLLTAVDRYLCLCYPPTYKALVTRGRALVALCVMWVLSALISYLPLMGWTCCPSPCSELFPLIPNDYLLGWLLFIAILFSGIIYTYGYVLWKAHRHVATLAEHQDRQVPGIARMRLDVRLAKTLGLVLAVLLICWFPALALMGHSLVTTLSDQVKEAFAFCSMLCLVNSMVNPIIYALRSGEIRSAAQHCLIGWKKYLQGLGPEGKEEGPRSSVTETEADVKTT
Text: Optimal treatment time with CB2R agonist for anti-inflammation and neurodegeneration is studied after stroke. […] Using Cx3crl-Cnr2 and Nestin-Cnr2 pre-clinical mouse models of stroke timed experiments by administering the commercially available CB2R agonist […] at specific time points post infarct at selected doses provides data to evaluate compounds for this use. The CB2R molecular pathways and partners in stroke studied in microglia and neural progenitor cells (NPC) on different post stroke days are evaluated when various compounds are tested. Such microglia and neuron specific CB2Rs-KO stroke behavioral models allow precise mapping of CB2R selective agonist (e.g. JWH133) for potential protective roles in stroke.

BTBR mice = experiment: Behavioral effects of THC in a mouse model of depression (time and number of immobility); assay type: in vivo; conditions: BTBR mice (autism-like phenotype) compared to control mice; FIG. 1
Text: FIG. 1. Behavioral effects THC in a mouse model of depression: The time and number of immobility in the test is the index measured.

Cnr2 gene transcripts = experiment: Expression of Cnr2 gene transcripts in rodents treated with abused substances; assay type: in vivo; conditions: treated animals in comparison to controls

SMILES	alcohol consumption [1]	CB2R agonist or antagonist effect on alcohol consumption [1]	brain infarct volumes (CB2R)	neurological deficits (CB2R)	other results
COc1ccc(C(=O)c2c(C)n(CCN3CCOCC3)c3cc(I)ccc23)cc1 [AM630]	reduces the stress-induced increase in alcohol consumption	absent			
CN1CCCCC1Cn1cc(C(=O)c2cc([N+](=O)[O-])ccc2I)c2ccccc21 (stereo not shown) [AM1241]			significantly reduce	significantly reduce	
CCCC(C)(C)c1ccc2c(c1)OC(C)(C)[C@@H]1CC=C(C)C[C@@H]21 [JWH133]			significantly reduce	significantly reduce	
CCCn1c(C)c(C(=O)c2cccc3ccccc23)c2ccccc21 [JWH 015]	enhances alcohol consumption	absent			
CCCCCc1cc(O)c2c(c1)OC(C)(C)[C@@H]1CCC(C)=C[C@@H]21 [THC, tetrahydrocannabinol]					Behavioral effects of THC: time and number of immobility (BTBR mice): BTBR mice are insensitive to the effects of THC
CC(=O)Oc1ccc2c3c1O[C@H]1[C@@H](OC(C)=O)C=C[C@H]4[C@@H](C2)N(C)CC[C@@]341 [heroin]					Cnr2 gene transcripts in the brain (Cnr2 gene transcripts): increased Cnr2 gene transcripts
